Experimental data published in patent US8486924B2, “Taxane delivery system” (Celator Pharmaceuticals, Inc., priority 2007, dated 2013).
Where two headings read alike, the source gives them in different places.

Legend:
[1] = tested on: HT29 human colon carcinoma cells; conditions: Q4Dx6, nanoparticle formulations; for therapeutic activity in HT29 model: 34 μmol/kg dose; for treatment induced delay in reaching a mean tumor size of 500 mm^3: HT29 model, 36 μmol/kg
Protocol: Female athymic nude mice (7-8 weeks old) were inoculated subcutaneously with 100 μl HT29 human colon carcinoma cells (2×10^6 cells) using a 26 gauge needle. Mice were randomly grouped (n=6/group) with a mean tumor size between 80 and 120 mg prior to first treatment. […] Subsequent injections were made according to the designated schedule. Tumor length and width measurements, body weight and in life observations were recorded 2-3 times per week. Tumor weight was calculated according to the formula (L×W^2)/2.
The relative efficacies of nanoparticle formulations of 1, 2, 4, 5, 6 and 7 were determined in the HT29 model using a 36 μmol/kg dose on a Q4Dx6 schedule (FIG. 3). Saline was used as a negative control.
The activity of 7 in POPC/2.5kPS3k nanoparticle formulations relative to paclitaxel was determined by comparing the efficacy of doses ranging from 0.25 to 3 mole equivalents of paclitaxel (FIG. 4) in the HT29 tumor model. Taxol® dosed at 23 μmol/kg on a Q2Dx5 schedule was used as a positive control.
The tumor growth data was analyzed by two methods to determine what dose of 7 would be equivalent to the Taxol® positive control.

[2] = tested on: MCF-7 human tumor cell line; conditions: read-out: IC50 values MCF-7; prodrug/POPC/2kPS3k (1:1:2) formulations; 72 hours; MTT; ± SD
[3] = tested on: A2780 human tumor cell line; assay: MTT growth inhibition, A2780 cells, 72 hours; conditions: read-out: IC50 values A2780, prodrug/POPC/2kPS3k (1:1:2) formulations, ± SD
[4] = tested on: MCF-7 breast carcinoma cell line; conditions: literature reference 7; cited from earlier work
[5] = volume weighted average
Protocol: The prodrug, co-lipid and stabilizer polymers (typically on a 1:1:2 w/w basis) were dissolved in ethanol/THF (4:1) at a concentration of 40 mg/ml. The solvent was rapidly diluted with water using a four port CVIJ mixer^13, 14 with flow rates set at […] (solvent/water/water/water). Flow rates were controlled using Harvard Apparatus PHD2000 syringe pumps. The resultant solution was then dialyzed against water to remove residual solvent. […] When higher concentrations were required the dialyzed solution was diluted with equi-volumes of 600 mM sucrose and then concentrated using a 100 kD, 0.5 mm lumen, 60 cm path length MidGee hoop cartridge (GE Healthcare Life Sciences, Piscataway, N.J.) with a peristaltic pump. Particle size was determined using a Malvern Zetasizer Nano-ZS particle sizer and reported as volume weighted data.
Formulations were composed of a prodrug, a co-lipid and an amphipathic stabilizer in a weight ratio of 1:1:2, respectively at a concentration of 40 mg per mL of solvent. […] Poly(ethylene glycol)-b-polystyrene (2kPS3k or 2.5kPS3k) was used as the amphipathic stabilizer. Other stabilizers may also be used.

[6] = vortexing 30 seconds
Protocol: The physical stability of formulations was investigated by examining changes in particle size after vortexing prodrug/co-lipid/2.5kPS3k (1:1:2) nanoparticles in water, 150 mM saline or 300 mM sucrose (Table 1). […] The increase in particle size was monitored by using dynamic light scattering to measure the Z average (the intensity weighted mean size of the particle distribution) value for samples before and after vigorous vortexing. The change in the Zave value was used as surrogate readout for the formation of aggregates or precipitates resulting from mechanical instability, where a higher value for ΔZave indicated a higher level of aggregation or precipitation (Table 1).

[7] = unbuffered processed plasma sample
Description: Methanol:acetonitrile 1:4 (v:v) was effective in near complete precipitation of plasma proteins and liberation of the prodrug from the nanoparticle.

[8] = mouse, in vivo
Protocol: Athymic nude mice (n=3/timepoint) were injected iv with test samples (10 μl/g body weight, to a maximum of 250 μl). Blood was collected at the designated time point by cardiac puncture and placed into EDTA coated microtainer tubes (BD Biosciences). The tubes were centrifuged at 2800 rpm for 10 minutes. Plasma was recovered and 50 μl aliquots analyzed by HPLC for drug content. Samples containing ^3H—CHE (50 μl) were diluted with PicoFluor40™ scintillation fluid (Packard) and counted on a Beckman-Coulter LS 6500 Multipurpose scintillation counter. The total drug (counts) per mouse in the blood compartment was calculated assuming a plasma volume of 0.04125 mL per gram of body weight.
Elimination studies tracking both the prodrug and the particle were conducted to obtain a more accurate description of the partitioning behavior of the prodrugs in vivo (FIG. 1). Prodrug elimination was followed by HPLC, while particle elimination rates were determined by labeling nanoparticles with tritiated cholesterylhexadecyl ether (3H—CHE).
Formulations comprised of 1/VES/2kPS3k (1:1:2) and 2/VES/2kPS3k (1:1:2) were labeled with trace amounts of ^3H—CHE and plasma levels of both the label and prodrug were monitored in Foxn1^nu mice (FIG. 1, Panel A).
Effect of prodrug partitioning on plasma drug elimination was determined. The prodrug panel was screened using prodrug/POPC/2kPS3k (1:1:2) nanoparticles in Foxn1^nu mice to determine elimination rates for the different prodrug conjugates (FIG. 2). […] Conjugates were formulated at a concentration of 0.7 mg/mL.
In order to estimate the partitioning half-life for each prodrug, it was assumed that 1 tracked the particle elimination rate based on the results discussed above. The elimination of all other prodrugs were then fitted to four parameter double exponential decay curves and normalized against 1.

[9] = prodrug/POPC/2.5kPS3k (1:1:2) nanoparticles in water
[10] = co-lipid POPC, prodrug/co-lipid/2.5kPS3k (1:1:2)

With “2′-O-(4″-O-tocopherylsuccinoyl)-paclitaxel [Prodrug 1]” the “therapeutic activity in HT29 model” value [1] was “no evidence of any therapeutic activity”, the IC50 [2] was 158 ± 72 nM and the IC50 [3] was 192 nM.

For `CCCCCCCCCCCCCCC(Br)C(=O)O[C@@H](C(=O)O[C@H]1C[C@@]2(O)[C@@H](OC(=O)c3ccccc3)[C@@H]3[C@]4(OC(C)=O)CO[C@@H]4C[C@H](O)[C@@]3(C)C(=O)[C@H](OC(C)=O)C(=C1C)C2(C)C)[C@@H](NC(=O)c1ccccc1)c1ccccc1` (stereo partly shown) [2′-(2″-bromohexadecanoyl)paclitaxel], the IC50 [4] is listed as 70 nM.

For `CCCCCCCCCCCCCCCC(=O)OC(C(=O)OC1CC2(O)C(OC(=O)c3ccccc3)C3C4(OC(C)=O)COC4CC(O)C3(C)C(=O)C(OC(C)=O)C(=C1C)C2(C)C)C(NC(=O)c1ccccc1)c1ccccc1` (stereo not shown) [2′-O-hexadecanoylpaclitaxel], the IC50 [4] is listed as 8600 nM.

For `CC(=O)O[C@H]1C(=O)[C@@]2(C)[C@H]([C@H](OC(=O)c3ccccc3)[C@]3(O)C[C@H](OC(=O)[C@H](O)[C@@H](NC(=O)c4ccccc4)c4ccccc4)C(C)=C1C3(C)C)[C@]1(OC(C)=O)CO[C@@H]1C[C@@H]2O` [Paclitaxel], the IC50 [4] is given as < 1 nM.

For `CCCCCCCC/C=C\CCCCCCCCOC(=O)CCC(=O)O[C@@H](C(=O)O[C@H]1C[C@@]2(O)[C@@H](OC(=O)c3ccccc3)[C@@H]3[C@]4(OC(C)=O)CO[C@@H]4C[C@H](O)[C@@]3(C)C(=O)[C@H](OC(C)=O)C(=C1C)C2(C)C)[C@@H](NC(=O)c1ccccc1)c1ccccc1` [Prodrug 2, 2′-O-(4″-O-oleylsuccinoyl)-paclitaxel], the Diameter [5, 9] was 26 nm, the “ΔZave 150 mM saline” value [6, 10] was 43 nm and the “ΔZave 300 mM sucrose” value [6, 10] was 10 nm. For the same compound, the ΔZave water [6, 10] was 20 nm, the “therapeutic activity in HT29 model” value [1] was “no evidence of any therapeutic activity” and the “prodrug remaining after processing plasma samples” value ([7]; after 68 hours) was “approximately 25%”. For the same compound, the IC50 [2] was 67 ± 5.9 nM, the “prodrug plasma clearance compared with 3H-CHE label” value ([8]; iv) was “cleared significantly faster” and the IC50 [3] was 75.1 nM.

With `CC(=O)OC1C(=O)C2(C)C(O)CC3OCC3(OC(C)=O)C2C(OC(=O)c2ccccc2)C2(O)CC(OC(=O)C(OC(=O)COCC(=O)Oc3c(C)c(C)c4c(c3C)CCC(C)(CCCC(C)CCCC(C)CCCC(C)C)O4)C(NC(=O)c3ccccc3)c3ccccc3)C(C)=C1C2(C)C` (stereo not shown) [Prodrug 3, 2′-O-(5″-O-tocopheryldiglycoloyl)-paclitaxel] the Diameter [5, 9] was 24 nm, the “ΔZave 150 mM saline” value [6, 10] was 55 nm and the ΔZave water [6, 10] was 125 nm. For the same compound, the IC50 [2] was 13.4 ± 2.4 nM, the partitioning half life [8] was “approximately 13 h” and the IC50 [3] was 25.3 nM.

In the case of `CCCCCCCC/C=C\CCCCCCCCOC(=O)COCC(=O)O[C@@H](C(=O)O[C@H]1C[C@@]2(O)[C@@H](OC(=O)c3ccccc3)[C@@H]3[C@]4(OC(C)=O)CO[C@@H]4C[C@H](O)[C@@]3(C)C(=O)[C@H](OC(C)=O)C(=C1C)C2(C)C)[C@@H](NC(=O)c1ccccc1)c1ccccc1` [Prodrug 4, 2′-O-(5″-O-oleyldiglycoloyl)-paclitaxel], the Diameter [5, 9] is reported as 22 nm, the “ΔZave 150 mM saline” value [6, 10] is reported as 25 nm and the “ΔZave 300 mM sucrose” value [6, 10] is reported as 5 nm. The ΔZave water [6, 10] was 15 nm, the “treatment induced delay in reaching a mean tumor size of 500 mm^3” value (“treatment induced delay” below) [1] was 3 days and the IC50 [2] was 15.9 ± 0.7 nM. The IC50 [3] was 28.4 nM.

For `CCCCCCCCCCCCCCCCCCOC(=O)COCC(=O)O[C@@H](C(=O)O[C@H]1C[C@@]2(O)[C@@H](OC(=O)c3ccccc3)[C@@H]3[C@]4(OC(C)=O)CO[C@@H]4C[C@H](O)[C@@]3(C)C(=O)[C@H](OC(C)=O)C(=C1C)C2(C)C)[C@@H](NC(=O)c1ccccc1)c1ccccc1` [Prodrug 5, 2′-O-(5″-O-octadecyldiglycoloyl)-paclitaxel], the Diameter ([5]; no co-lipid, prodrug/2.5kPS3k nanoparticles in water) was 28 nm, the Diameter [5, 9] was 21 nm and the Diameter ([5]; prodrug/VES/2.5kPS3k (1:1:2) nanoparticles in water) was 7 nm. For the same compound, the “ΔZave 150 mM saline” value [6, 10] was 24 nm, the “ΔZave 300 mM sucrose” value [6, 10] was 7 nm and the ΔZave water [6, 10] was 20 nm. The “ΔZave 150 mM saline” value ([6]; co-lipid VES, 2.5kPS3k) was 372 nm, the “ΔZave 300 mM sucrose” value ([6]; co-lipid VES, 2.5kPS3k) was 10 nm and the ΔZave water ([6]; co-lipid VES, 2.5kPS3k) was 3 nm. The “ΔZave 150 mM saline” value ([6]; no co-lipid, 2.5kPS3k) was 774 nm, the “ΔZave 300 mM sucrose” value ([6]; no co-lipid, 2.5kPS3k) was 71 nm and the ΔZave water ([6]; no co-lipid, 2.5kPS3k) was 109 nm. For the same compound, the “treatment induced delay” value [1] was 4 days, the IC50 [2] was 1.1 ± 1.5 nM and the partitioning half life [8] was 1.7 h. It also gave an IC50 [3] of 20.9 ± 10.9 nM.

For `CCCCCCCCCCCCCCCCCCCCOC(=O)COCC(=O)O[C@@H](C(=O)O[C@H]1C[C@@]2(O)[C@@H](OC(=O)c3ccccc3)[C@@H]3[C@]4(OC(C)=O)CO[C@@H]4C[C@H](O)[C@@]3(C)C(=O)[C@H](OC(C)=O)C(=C1C)C2(C)C)[C@@H](NC(=O)c1ccccc1)c1ccccc1` [Prodrug 6, 2′-O-(5″-O-cosanyldiglycoloyl)-paclitaxel], the Diameter [5, 9] was 23 nm, the “ΔZave 150 mM saline” value [6, 10] was 26 nm and the “ΔZave 300 mM sucrose” value [6, 10] was 36 nm. For the same compound, the ΔZave water [6, 10] was 21 nm, the “treatment induced delay” value [1] was 15 days and the “hydrolysis of prodrug after processing plasma samples” value ([7]; after 9 hours) was “completely hydrolyzed”. For the same compound, the IC50 [2] was 16.6 ± 4.5 nM, the partitioning half life [8] was ~6.5 h and the IC50 [3] was 29 ± 1.3 nM.

With `CC(=O)O[C@H]1C(=O)[C@@]2(C)[C@H]([C@H](OC(=O)c3ccccc3)[C@]3(O)C[C@H](OC(=O)[C@H](OC(=O)COCC(=O)O[C@H]4CC[C@@]5(C)C(=CC[C@H]6[C@@H]7CC[C@H]([C@H](C)CCCC(C)C)[C@@]7(C)CC[C@@H]65)C4)[C@@H](NC(=O)c4ccccc4)c4ccccc4)C(C)=C1C3(C)C)[C@]1(OC(C)=O)CO[C@@H]1C[C@@H]2O` [Prodrug 8, 2′-O-(5″-O-cholesteryldiglycoloyl)-paclitaxel] the Diameter [5, 9] was 23 nm, the “ΔZave 150 mM saline” value [6, 10] was 42 nm and the “ΔZave 300 mM sucrose” value [6, 10] was 41 nm. The ΔZave water [6, 10] was 47 nm, the IC50 [2] was 24.1 ± 0.6 nM and the partitioning half life [8] was “approximately 21 h”. For the same compound, the IC50 [3] was 27 ± 1.1 nM.

For `CCCCCCCCCCCCCC(=O)OC[C@H](COC(=O)COCC(=O)O[C@@H](C(=O)O[C@H]1C[C@@]2(O)[C@@H](OC(=O)c3ccccc3)[C@@H]3[C@]4(OC(C)=O)CO[C@@H]4C[C@H](O)[C@@]3(C)C(=O)[C@H](OC(C)=O)C(=C1C)C2(C)C)[C@@H](NC(=O)c1ccccc1)c1ccccc1)OC(=O)CCCCCCCCCCCCC` [Prodrug 9, 2′-O-(5″-O-(1′″,2′″-dimyristoyl-sn-glycero)diglycoloyl)-paclitaxel], the Diameter [5, 9] was 23 nm, the “ΔZave 150 mM saline” value [6, 10] was 171 nm and the “ΔZave 300 mM sucrose” value [6, 10] was 0 nm. It also gave a ΔZave water [6, 10] of 167 nm, an IC50 [2] of 32.2 ± 1.3 nM and a partitioning half life [8] of 8.5 h. It also gave an IC50 [3] of 34.7 ± 1.3 nM.
